How the values were obtained:
[1] = Oxygen radical absorbance capacity with fluorescein (ORAC-FL) assay; conditions: compound 1 μM
Method: Oxidative stress is another crucial event in AD pathogenesis. In order to determine antioxidant activities of our synthetic compounds, the oxygen radical absorbance capacity method with fluorescein (ORAC-FL) assay was performed. with Trolox (6-hydroxy-2,5,7,8-tetramethylchroman-2-carboxylic acid) as the standard, and their antioxidant activity was expressed as Trolox equivalents.
The antioxidant activities of the compounds in vitro were determined by the oxygen radical absorbance capacity fluorescein (ORAC-FL) assay. The tested compounds and (±)-6-hydroxy-2,5,7,8-tetramethylchroman-2-carboxylic acid (Trolox) were dissolved in DMSO at a concentration of 10 mM, and then diluted with 75 mM potassium phosphate buffer (pH 7.4) to 50 μM and 10 μM for use. The fluorescein (FL) stock solution (3.4 mM) was diluted with the same buffer to 136 nM. All the assays were conducted with 75 mM potassium phosphate bufffer (pH 7.4), and the final reaction mixture was 200 μL.
The mixture of compounds (or buffer) (20 μL) and fluorescein (FL, 120 μL) were incubated for 15 min at 37 °C in a black 96-well plate. Then 2,2′-azobis-(amidino-propane)-dihydrochloride (AAPH) solution (60 μL, 40 mM) was rapidly added to the reaction mixture. The fluorescence was recorded every 5 min for 240 min at 485 nm (excitation wavelength) and 535 nm (emission wavelength) (Varioskan Flash Multimode Reader, Thermo Scientific, Waltham, MA, USA), and each sample was prepared and measured for three times independently. […] The net AUC for a sample was calculated using the expression net AUC = AUCsample − AUCblank, The ORAC-FL value of each sample was calculated using the equation of net AUCsample/(AUCTrolox – AUCblank), which was expressed as Trolox equivalents.

[2] = Metal chelation by UV-vis spectrometry; assay type: physicochemical
Method: The chelation ability of compound 6b1 toward biometals such as Na^+, K^+, Cu^2+, Fe^2+, Mg^2+, Ca^2+, and Zn^2+ was studied by UV-vis spectrometry. […] Its ability to selectively chelate Cu^2+ versus other relevant metal ions was further investigated by UV-vis spectrometry. Solution of compound 6b1 was prepared and treated with the metal ion (Zn^2+, Fe^2+, Ca^2+, Mg^2+, Na^+ and K^+), after 10 min incubation, the optical response was observed, followed by addition of Cu^2+ and consequent analysis of further spectral changes.
In order to further determine the stoichiometry of compound 6b1 for Cu^2+ binding, the UV spectra was performed by titrations of compound 6b1 upon stepwise additions of a Cu^2+ solution.
The metal chelation of compound 6b1 was tested in ethanol using a UV-vis spectrophotometer (Shimadzu UV-2450PC) with wavelength ranging from 200 to 700 nm. The absorption spectra of compound 6b1 (10 μM, final concentration) alone or in the presence of metal ions (20 μM, final concentration) after incubation for 30 min at room temperature, was recorded at room temperature in a 1 cm quartz cell. Each sample was repeated for at least three times.
Experiments for the determination of metal ion binding selectivity were carried as follows. 20.0 mM stock solutions of CuSO4, ZnSO4, FeSO4, CaCl2, MgCl2, NaCl and KCl in MQ water were prepared and then diluted to 1.0 mM using ethanol. […] 10 μL solutions of the compounds treated with 10 μL of ZnSO4, FeSO4, CaCl2, MgCl2, NaCl and KCl. Spectra were recorded after 10 min incubation at 25 °C. The metal binding selectivity was assessed by then adding 10 μL of CuSO4 solution and incubating for 10 additional min at 25 °C. Selectivity was quantified by comparing and normalizing the absorbance values of the maximum in each case with the absorbance of the solution at the same wavelength after addition of CuSO4.
For binding stoichiometry assay, A fixed amount of compound 6b1 (20 μM) was mixed with growing amounts of copper ion (0–20 μM) and tested the difference UV-vis spectra to investigate the ratio of ligand/metal in the complex.

[3] = target: T1, Aβ1–42 (Homo sapiens, UniProt P05067); assay: Inhibition of Cu^2+-induced Aβ1–42 aggregation (ThT-binding assay); assay type: biochemical; conditions: [Aβ] = 20 μM, [Cu^2+] = 20 μM, [compound] = 40 μM; 37 °C, 24 h
T1 construct: Aβ1–42 (Sigma, St. Louis, MO, USA; counterion, NaOH) stock solution was prepared by dissolving Aβ1–42 peptide in ammonium hydroxide; purchased Sigma
Method: To investigate the ability of compound 6b1 to inhibit Cu^2+-induced Aβ1–42 aggregation, the ThT-binding assay was performed.
Aβ was diluted in […] (pH 6.6) with […]. The mixture of the peptide (10 μL, 20 μM, final concentration) with or without copper (10 μL, 20 μM, final concentration) and the test compound (10 μL, 40 μM, final concentration) was incubated at 37 °C for 24 h. The 30 μL of the sample was diluted to a final volume of 200 μL with 50 mM glycine-NaOH buffer (pH 8.0) containing thioflavin T (5 μM). The detection method was the same as that of self-induced Aβ aggregation experiment.

[4] = Cytotoxicity on SH-SY5Y cells (MTT); assay type: cell-based, human; conditions: human, SH-SY5Y neuroblastoma cells; MTT, 24 h; mean ± SEM of three measurements
Method: (§1) The cytotoxicity of our synthesized compounds was examined in human neuroblastoma SH-SY5Y cells. The cell viability was determined by using methyl thiazolyl tetrazolium (MTT) colorimetry, the cells were treated with different concentrations of compounds (0–100 μM). The result is shown in the Supplementary Materials (Table S1).
(§2) The cytotoxicities of the compounds were evaluated using the MTT assay. SH-SY5Y cells were subcultured in 96-well plates at a seeding density of 1 × 10^4 cells per well. After 24 h, the medium was removed and treated with different concentrations of tested compounds for 24 h at 37 °C. The survival of cells was determined with MTT assay. Then 80 μL of medium and 20 μL of MTT (0.5 mg/mL, final concentration) were added to each well and incubated for another 4 h. After the removal of MTT, the formazan crystals were dissolved in DMSO. The amount of formazan was measured using a microculture plate reader at the wavelength of 570 nm. Each concentration was performed in triplicate.

[5] = system: SH-SY5Y cells; assay: Cytotoxicity on SH-SY5Y cells (MTT); assay type: cell-based, human; conditions: 20 μM
Method: as §1, §2

[6] = target: T2, Aβ1–42 fibrils (Homo sapiens, UniProt P05067); assay: Disaggregation of self-induced Aβ1–42 aggregation fibrils (ThT binding assay); assay type: biochemical; conditions: compound 20 μM, fibrils formed 24 h, then 24 h with compound, 37 °C
T2 construct: Aβ1–42 (Sigma, St. Louis, MO, USA; counterion, NaOH) stock solution was prepared by dissolving Aβ1–42 peptide in ammonium hydroxide; purchased Sigma
Method: The ability of compound 6b1 to disaggregate self-induced Aβ1–42 aggregation fibrils was also investigated. Aβ1–42 fibrils were prepared by incubating fresh Aβ1–42 for 24 h at 37 °C, and the test compound was added to the sample and incubated for another 24 h at 37 °C. Then the sample was analyzed by ThT binding assay and TEM assay.

[7] = target: AChE (Homo sapiens, UniProt P22303); assay: AChE inhibition (data not shown); assay type: biochemical
[8] = compound 10 μM, metal ions 20 μM, ethanol

Sequence of AChE (P22303 32-614): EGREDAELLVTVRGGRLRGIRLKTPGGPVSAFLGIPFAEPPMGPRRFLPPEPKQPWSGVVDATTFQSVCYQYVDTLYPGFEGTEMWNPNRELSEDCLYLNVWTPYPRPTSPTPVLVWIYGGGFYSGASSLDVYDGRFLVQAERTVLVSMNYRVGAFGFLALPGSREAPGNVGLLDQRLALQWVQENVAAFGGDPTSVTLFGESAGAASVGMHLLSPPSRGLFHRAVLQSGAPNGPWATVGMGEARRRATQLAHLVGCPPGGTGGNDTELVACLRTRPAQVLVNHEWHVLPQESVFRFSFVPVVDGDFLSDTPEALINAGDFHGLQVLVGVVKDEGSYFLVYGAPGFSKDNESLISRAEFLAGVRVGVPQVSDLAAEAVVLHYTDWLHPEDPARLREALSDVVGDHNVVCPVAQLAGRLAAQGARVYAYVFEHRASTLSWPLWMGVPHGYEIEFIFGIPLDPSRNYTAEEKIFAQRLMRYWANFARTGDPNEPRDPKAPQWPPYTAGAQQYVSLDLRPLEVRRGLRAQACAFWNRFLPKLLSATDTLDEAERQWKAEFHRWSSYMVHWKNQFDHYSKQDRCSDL
T1 sequence (P05067 672-713): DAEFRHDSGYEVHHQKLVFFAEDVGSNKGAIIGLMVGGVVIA
T2 sequence (P05067 672-713): as above

CCN(CC)c1ccc(/C=C/c2cc(NCCCN(C)C)c3ccccc3n2)cc1 [Compound 6b1, (E)-N^1-(2-(4-(Diethylamino)styryl)quinolin-4-yl)-N^3,N^3-dimethylpropane-1,3-diamine]
ORAC [1]: 6.23 ± 0.05 μmol of Trolox equivalents/μmol of tested compounds | Binding to Na^+, K^+, Mg^2+, Ca^2+ (UV-vis) [2, 8]: may not bind to these metal ions | Interaction with Cu^2+, Fe^2+, Zn^2+ (UV-vis) [2, 8]: form the complex | Selectivity of metal chelation for Cu^2+ versus other metal ions ([2]; versus Zn^2+, Fe^2+, Ca^2+, Mg^2+, Na^+, K^+): good selectivity of metal chelation for Cu^2+ | Inhibition of Cu^2+-induced Aβ aggregation [3]: 85.8% | IC50 at 24 h [4]: 254 µM | Effect on SH-SY5Y cell viability, compound alone [5]: does not affect cell viability | Disaggregation ratio of self-induced Aβ1–42 fibrils [6]: 64.3% | Inhibitory activity toward AChE [7]: weak
